{"source": "patent US7381426B2", "about": "“Targeted delivery of bioactive factors to the systemic skeleton” (Southwest Research Institute, priority 2002, dated 2008)", "origin": "cited, not measured here", "test_system": "hindlimb unloading in rats", "details": "infusion 2 μg/kg/day, hindlimb unloaded rats"}
{"substance": "TGF-β", "values": [{"measurement": "effect on unloading-induced bone changes", "result": "corrects the decrease in bone mass, calcium content, osteoblast number and mineralization rate"}]}
